In PubChem BioAssay (NCI):
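Interpolation was linear, between the two tested concentrations surrounding the appropriate level; five concentrations were tested over 48 hours in 96-well plates. TGI denotes the concentration required for complete inhibition of growth.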

Key:
Experiment in all cases: NCI anticancer screen, dose series, 48 h
786-0 renal = tested on: 786-0 renal
A498 renal = tested on: A498 renal
A549 NSCLC = tested on: A549 NSCLC
ACHN renal = tested on: ACHN renal
CAKI-1 renal = tested on: CAKI-1 renal
CCRF-CEM leukemia = tested on: CCRF-CEM leukemia
COLO 205 colon = tested on: COLO 205 colon
DLD-1 colon = tested on: DLD-1 colon
DMS 114 small cell lung = tested on: DMS 114 small cell lung
DMS 273 small cell lung = tested on: DMS 273 small cell lung
EKVX NSCLC = tested on: EKVX NSCLC
HCC-2998 colon = tested on: HCC-2998 colon
HCT-116 colon = tested on: HCT-116 colon
HCT-15 colon = tested on: HCT-15 colon
HL-60(TB) leukemia = tested on: HL-60(TB) leukemia
HOP-18 NSCLC = tested on: HOP-18 NSCLC
HOP-62 NSCLC = tested on: HOP-62 NSCLC
HOP-92 NSCLC = tested on: HOP-92 NSCLC
HT29 colon = tested on: HT29 colon
IGROV1 ovarian = tested on: IGROV1 ovarian
K-562 leukemia = tested on: K-562 leukemia
KM12 colon = tested on: KM12 colon
KM20L2 colon = tested on: KM20L2 colon
LXFL 529 NSCLC = tested on: LXFL 529 NSCLC
M14 melanoma = tested on: M14 melanoma
M19-MEL melanoma = tested on: M19-MEL melanoma
MALME-3M melanoma = tested on: MALME-3M melanoma
MOLT-4 leukemia = tested on: MOLT-4 leukemia
NCI-H226 lung = tested on: NCI-H226 lung
NCI-H23 lung = tested on: NCI-H23 lung
NCI-H460 lung = tested on: NCI-H460 lung
NCI-H522 lung = tested on: NCI-H522 lung
OVCAR-3 ovarian = tested on: OVCAR-3 ovarian
OVCAR-4 ovarian = tested on: OVCAR-4 ovarian
OVCAR-5 ovarian = tested on: OVCAR-5 ovarian
OVCAR-8 ovarian = tested on: OVCAR-8 ovarian
RPMI-8226 leukemia = tested on: RPMI-8226 leukemia
RXF-631 renal = tested on: RXF-631 renal
SF-268 CNS = tested on: SF-268 CNS
SF-295 CNS = tested on: SF-295 CNS
SF-539 CNS = tested on: SF-539 CNS
SK-MEL-2 melanoma = tested on: SK-MEL-2 melanoma
SK-MEL-28 melanoma = tested on: SK-MEL-28 melanoma
SK-MEL-5 melanoma = tested on: SK-MEL-5 melanoma
SK-OV-3 ovarian = tested on: SK-OV-3 ovarian
SN12C renal = tested on: SN12C renal
SNB-19 CNS = tested on: SNB-19 CNS
SNB-75 CNS = tested on: SNB-75 CNS
SNB-78 CNS = tested on: SNB-78 CNS
SW-620 colon = tested on: SW-620 colon
TK-10 renal = tested on: TK-10 renal
U251 CNS = tested on: U251 CNS
UACC-257 melanoma = tested on: UACC-257 melanoma
UACC-62 melanoma = tested on: UACC-62 melanoma
UO-31 renal = tested on: UO-31 renal
XF 498 CNS = tested on: XF 498 CNS
LOX IMVI melanoma = tested on: LOX IMVI melanoma
SR leukemia = tested on: SR leukemia

Nn1c(-c2ccccc2Cl)nc2ccccc2c1=O
TGI (786-0 renal): > 100 µM | TGI (A498 renal): > 100 µM | TGI (A549 NSCLC): > 100 µM | TGI (ACHN renal): > 100 µM | TGI (CAKI-1 renal): > 100 µM | TGI (CCRF-CEM leukemia): > 100 µM | TGI (COLO 205 colon): > 100 µM | TGI (DLD-1 colon): > 100 µM | TGI (DMS 114 small cell lung): > 100 µM | TGI (DMS 273 small cell lung): > 100 µM | TGI (EKVX NSCLC): > 100 µM | TGI (HCC-2998 colon): > 100 µM | TGI (HCT-116 colon): > 100 µM | TGI (HCT-15 colon): > 100 µM | TGI (HL-60(TB) leukemia): > 100 µM | TGI (HOP-18 NSCLC): > 100 µM | TGI (HOP-62 NSCLC): > 100 µM | TGI (HOP-92 NSCLC): > 100 µM | TGI (HT29 colon): > 100 µM | TGI (IGROV1 ovarian): > 100 µM | TGI (K-562 leukemia): > 100 µM | TGI (KM12 colon): > 100 µM | TGI (KM20L2 colon): > 100 µM | TGI (LXFL 529 NSCLC): > 100 µM | TGI (M14 melanoma): > 100 µM | TGI (M19-MEL melanoma): > 100 µM | TGI (MALME-3M melanoma): > 100 µM | TGI (MOLT-4 leukemia): > 100 µM | TGI (NCI-H226 lung): > 100 µM | TGI (NCI-H23 lung): > 100 µM | TGI (NCI-H460 lung): > 100 µM | TGI (NCI-H522 lung): > 100 µM | TGI (OVCAR-3 ovarian): > 100 µM | TGI (OVCAR-4 ovarian): > 100 µM | TGI (OVCAR-5 ovarian): > 100 µM | TGI (OVCAR-8 ovarian): > 100 µM | TGI (RPMI-8226 leukemia): > 100 µM | TGI (RXF-631 renal): > 100 µM | TGI (SF-268 CNS): > 100 µM | TGI (SF-295 CNS): > 100 µM | TGI (SF-539 CNS): > 100 µM | TGI (SK-MEL-2 melanoma): > 100 µM | TGI (SK-MEL-28 melanoma): > 100 µM | TGI (SK-MEL-5 melanoma): > 100 µM | TGI (SK-OV-3 ovarian): > 100 µM | TGI (SN12C renal): > 100 µM | TGI (SNB-19 CNS): > 100 µM | TGI (SNB-75 CNS): > 100 µM | TGI (SNB-78 CNS): > 100 µM | TGI (SW-620 colon): > 100 µM | TGI (TK-10 renal): > 100 µM | TGI (U251 CNS): > 100 µM | TGI (UACC-257 melanoma): > 100 µM | TGI (UACC-62 melanoma): > 100 µM | TGI (UO-31 renal): > 100 µM | TGI (XF 498 CNS): > 100 µM

COc1cc2c(cc1OC(=O)CC(C)O)C1C(OC2=O)C(OC(C)=O)C=C2CCN(C)[C@H]21 (some centres undefined)
TGI (786-0 renal): 53.7 µM | TGI (A498 renal): 45.5 µM | TGI (A549 NSCLC): > 100 µM | TGI (ACHN renal): > 100 µM | TGI (CAKI-1 renal): > 100 µM | TGI (CCRF-CEM leukemia): > 100 µM | TGI (COLO 205 colon): > 100 µM | TGI (DLD-1 colon): > 100 µM | TGI (DMS 273 small cell lung): > 100 µM | TGI (EKVX NSCLC): > 100 µM | TGI (HCC-2998 colon): > 100 µM | TGI (HCT-116 colon): > 100 µM | TGI (HOP-18 NSCLC): 69.4 µM | TGI (HOP-62 NSCLC): 55.7 µM | TGI (HOP-92 NSCLC): 44.5 µM | TGI (HT29 colon): > 100 µM | TGI (IGROV1 ovarian): 70.4 µM | TGI (K-562 leukemia): > 100 µM | TGI (KM12 colon): > 100 µM | TGI (KM20L2 colon): > 100 µM | TGI (LOX IMVI melanoma): > 100 µM | TGI (LXFL 529 NSCLC): > 100 µM | TGI (M14 melanoma): > 100 µM | TGI (M19-MEL melanoma): > 100 µM | TGI (MOLT-4 leukemia): > 100 µM | TGI (NCI-H226 lung): 65.9 µM | TGI (NCI-H23 lung): > 100 µM | TGI (NCI-H460 lung): > 100 µM | TGI (NCI-H522 lung): > 100 µM | TGI (OVCAR-3 ovarian): > 100 µM | TGI (OVCAR-4 ovarian): > 100 µM | TGI (OVCAR-5 ovarian): > 100 µM | TGI (OVCAR-8 ovarian): > 100 µM | TGI (RXF-631 renal): 93.9 µM | TGI (SF-268 CNS): > 100 µM | TGI (SF-295 CNS): 49.9 µM | TGI (SF-539 CNS): 52.8 µM | TGI (SK-MEL-2 melanoma): 41.5 µM | TGI (SK-MEL-28 melanoma): > 100 µM | TGI (SK-MEL-5 melanoma): > 100 µM | TGI (SK-OV-3 ovarian): 57.2 µM | TGI (SN12C renal): > 100 µM | TGI (SNB-19 CNS): 57.5 µM | TGI (SNB-75 CNS): 38.4 µM | TGI (SNB-78 CNS): 68.8 µM | TGI (SR leukemia): > 100 µM | TGI (SW-620 colon): > 100 µM | TGI (TK-10 renal): 65.1 µM | TGI (U251 CNS): 61.4 µM | TGI (UACC-257 melanoma): > 100 µM | TGI (UACC-62 melanoma): > 100 µM | TGI (UO-31 renal): > 100 µM | TGI (XF 498 CNS): 38.6 µM
